According to article PMC8204306 (ACS Infectious Diseases, 2021):

Biological target: EchA19 (Mycobacterium tuberculosis, UniProt O53561)
Sequence (O53561 whole entry): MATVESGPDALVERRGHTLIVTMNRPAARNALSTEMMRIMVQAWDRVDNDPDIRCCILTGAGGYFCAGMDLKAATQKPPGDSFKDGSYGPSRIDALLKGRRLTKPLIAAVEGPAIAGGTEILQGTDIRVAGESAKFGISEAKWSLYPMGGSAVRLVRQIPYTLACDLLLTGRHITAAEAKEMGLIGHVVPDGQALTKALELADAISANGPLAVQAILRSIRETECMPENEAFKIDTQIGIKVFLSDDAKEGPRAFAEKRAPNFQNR

C[C@H](/C=C/C(=O)SCCNC(=O)CCNC(=O)[C@H](O)C(C)(C)COP(=O)(O)OP(=O)(O)OC[C@H]1O[C@@H](n2cnc3c(N)ncnc32)[C@H](O)[C@@H]1OP(=O)(O)O)[C@H]1CC[C@H]2[C@@H]3CCC4=CC(=O)CC[C@]4(C)[C@H]3CC[C@]12C [3-OCDO-CoA] was tested, and the “hydration product identified by MALDI MS and 1H NMR” value was “both EchA19 and ChsH3 performed the hydration reaction on 3-OCDO-CoA”.
